The values below come from PubChem BioAssay (NCI).

Molecules are shown by their SMILES.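 Tested at 5 concentrations; 48 h exposure; 96-well plates; endpoints linearly interpolated, else capped at highest concentration. At the GI50, growth is halved. Definition used: TGI = concentration required for complete inhibition of growth.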

Among the test systems are IGROV1 ovarian; TK-10 renal; NCI-H226 lung; HCC-2998 colon; CCRF-CEM leukemia; SNB-75 CNS; UACC-257 melanoma; KM12 colon; HOP-92 NSCLC; RPMI-8226 leukemia; BT-549 breast; NCI/ADR-RES ovarian.
Experiment in all cases: NCI-60 cell line screen, 48 h

Take `CC(=O)OC1/C=C(\C)C(OC(C)=O)C/C=C(/C)CCC2C(/C=C/C1=O)C2(C)C` (stereo not given): the TGI with IGROV1 ovarian is above 100 µM; in the assay on TK-10 renal, above 100 µM; in the assay on NCI-H226 lung it was above 100 µM; in the assay on HCC-2998 colon it was above 100 µM; in the assay on CCRF-CEM leukemia, above 100 µM; with SNB-75 CNS, 93.1 µM. Besides, the TGI in the assay with UACC-257 melanoma, with KM12 colon and in the assay on HOP-92 NSCLC was above 100 µM throughout.

As to `NS(=O)(=O)c1ccc(/C=C/c2ccc(O)c(O)c2)cc1`, the GI50 in the assay on IGROV1 ovarian is 4.49 µM; in the assay on RPMI-8226 leukemia, 9.16 µM; in the assay with NCI-H226 lung, 14 µM; in the assay on BT-549 breast, 4.13 µM; with CCRF-CEM leukemia, 4.79 µM; with KM12 colon, 18.2 µM. Also, the GI50 in the assay with HOP-92 NSCLC is 15.8 µM. Besides, the TGI with IGROV1 ovarian was 40.1 µM; in the assay on TK-10 renal, above 100 µM; in the assay with RPMI-8226 leukemia it was 73.3 µM; in the assay with NCI-H226 lung it was 60.2 µM; with HCC-2998 colon it was 41.7 µM; in the assay on BT-549 breast it was 27.1 µM. Also, the TGI in the assay on CCRF-CEM leukemia is above 100 µM; with SNB-75 CNS, 58.3 µM; in the assay with NCI/ADR-RES ovarian, 71.7 µM; in the assay on UACC-257 melanoma, above 100 µM; in the assay on KM12 colon, 48.9 µM; in the assay on HOP-92 NSCLC, 47.9 µM.

In the case of `COC(=O)c1c(O)ccc2c1c1c(n2Cc2cc(OC)cc(OC)c2)C(=O)c2ccccc2C1`, the TGI in the assay on IGROV1 ovarian was above 100 µM; in the assay on TK-10 renal it was above 100 µM; with RPMI-8226 leukemia, 36.2 µM; in the assay on NCI-H226 lung, above 100 µM; with BT-549 breast, above 100 µM; in the assay with CCRF-CEM leukemia it was 67.5 µM. Also, the TGI was 34.5 µM with SNB-75 CNS, 63.1 µM with NCI/ADR-RES ovarian, above 100 µM in the assay on UACC-257 melanoma and above 100 µM in the assay on KM12 colon.

Consider `CC1(C)OC(C(=O)Nc2cc3c4ccccc4ccc3c3ccccc23)C(C(=O)N2CCCCC2)O1` (stereo not given), for which the TGI in the assay with IGROV1 ovarian is above 100 µM; in the assay with TK-10 renal it was above 100 µM; with RPMI-8226 leukemia, above 43.2 µM; in the assay on NCI-H226 lung, above 100 µM; in the assay on HCC-2998 colon it was above 100 µM; in the assay with BT-549 breast it was above 100 µM. The TGI with CCRF-CEM leukemia, with SNB-75 CNS, in the assay with NCI/ADR-RES ovarian, with UACC-257 melanoma, in the assay with KM12 colon and in the assay on HOP-92 NSCLC was above 100 µM in each case.

For the molecule `O=P(O)(O)CCP(=O)(O)O`, the TGI with IGROV1 ovarian, in the assay with TK-10 renal, in the assay on RPMI-8226 leukemia, in the assay with BT-549 breast, with CCRF-CEM leukemia and in the assay with NCI/ADR-RES ovarian was above 100 µM each time. The TGI in the assay with UACC-257 melanoma, in the assay on KM12 colon and with HOP-92 NSCLC was above 100 µM throughout.

With `NC(CCCCCP(=O)(c1ccccc1)C1C=CC=CC1)C(=O)O` (stereo not given), the TGI with IGROV1 ovarian, in the assay with TK-10 renal, in the assay on RPMI-8226 leukemia, in the assay on BT-549 breast, with CCRF-CEM leukemia and in the assay with SNB-75 CNS was above 100 µM throughout. Moreover, the TGI with NCI/ADR-RES ovarian, in the assay with UACC-257 melanoma, in the assay on KM12 colon and in the assay with HOP-92 NSCLC was above 100 µM throughout.

In the case of `CCCC(=O)OCC1OC(n2ccc(N)nc2=O)C(OC(=O)CCC)C1OC(=O)CCC` (stereo not given), the TGI in the assay on IGROV1 ovarian, in the assay with RPMI-8226 leukemia, in the assay with NCI-H226 lung, with HCC-2998 colon, with CCRF-CEM leukemia and in the assay on SNB-75 CNS was above 100 µM throughout. Further, the TGI in the assay on NCI/ADR-RES ovarian, with UACC-257 melanoma, in the assay with KM12 colon and with HOP-92 NSCLC was above 100 µM in each case.

As for `Nc1c(C(=O)O)nnc2ccc(Cl)cc12`, the TGI in the assay on IGROV1 ovarian, in the assay with TK-10 renal, with RPMI-8226 leukemia, with NCI-H226 lung, in the assay on HCC-2998 colon and in the assay on BT-549 breast was above 100 µM in each case. In addition, the TGI with CCRF-CEM leukemia, with SNB-75 CNS, in the assay on NCI/ADR-RES ovarian, in the assay with UACC-257 melanoma and in the assay with KM12 colon was above 100 µM in each case.

With `COc1ccc(/C=C2\CCNC2=O)cc1`, the TGI in the assay on IGROV1 ovarian was above 100 µM; in the assay with RPMI-8226 leukemia, above 100 µM; with NCI-H226 lung, above 100 µM; with HCC-2998 colon, above 100 µM; in the assay on CCRF-CEM leukemia it was above 100 µM; in the assay with SNB-75 CNS it was above 79.5 µM. Further, the TGI with NCI/ADR-RES ovarian, with UACC-257 melanoma, in the assay on KM12 colon and in the assay on HOP-92 NSCLC was above 100 µM throughout.

For `O=c1sc2ccccc2n1CC1CS1` (stereo not given), the TGI with IGROV1 ovarian, with TK-10 renal, in the assay on RPMI-8226 leukemia, in the assay on NCI-H226 lung, in the assay on HCC-2998 colon and in the assay with CCRF-CEM leukemia was above 100 µM throughout. Further, the TGI in the assay on KM12 colon and with HOP-92 NSCLC was above 100 µM throughout.

Regarding `CN(C)c1ccc(/C=c2/c3ccccc3n3c2c2c([n+]3C)CCCC2)cc1`, the TGI is 1.82 µM with IGROV1 ovarian; 1.55 µM in the assay on TK-10 renal; 0.656 µM in the assay on RPMI-8226 leukemia; 2.43 µM with NCI-H226 lung; 0.375 µM in the assay with HCC-2998 colon; 2.19 µM in the assay on BT-549 breast. Moreover, the TGI with CCRF-CEM leukemia turned out to be 5.17 µM; with SNB-75 CNS it was 0.265 µM; with NCI/ADR-RES ovarian, 43.9 µM; in the assay on UACC-257 melanoma, 2.88 µM; in the assay with KM12 colon, 0.539 µM; in the assay with HOP-92 NSCLC, 0.141 µM.
